Assay results published in article PMC12571071, “Preventing neuropathy and improving anticancer chemotherapy with a carbazole-based compound” (Science Advances, 2025).

Key:
carbonic anhydrase (CA) = test: AS-MS binding assay, carbonic anhydrase (negative control); settings: 10 μM compound, 3 μM carbonic anhydrase
Description: To this end, Carba1 or FK866 (positive control of NAMPT binding) was first incubated with NAMPT or carbonic anhydrase (CA; negative control). Protein-ligand complexes were separated from the unbound compounds by size exclusion chromatography (SEC). To quantify the protein-bound fraction, the complexes were then dissociated using reverse-phase chromatography, and the compounds were analyzed and quantified by mass spectrometry. By comparing the amounts of compound before (preSEC) and after (postSEC) SEC in the presence of CA or NAMPT, we assessed their ability to selectively bind to NAMPT.
AS-MS was used to assess compound binding to NAMPT. AS-MS was performed by Edelris SAS (www.edelris.com/), which has developed the commercial AS-MS service “EDEN platform,” based on ([71]). Conditions consisted of protein (NAMPT and CA) at 3 μM and compounds (Carba1 and FK866) at 10 μM dissolved in corporate buffer.

DRG explants = test: Mouse embryonic 3D DRG explants: axonal degeneration and myelination (MBP/TUBB3); assay type: cell-based; settings: 72 h
Description: Embryonic DRG 3D explants were prepared from E13.5 mouse embryos and seeded at one explant/1.9 cm^2 on acid-treated, Matrigel-coated glass coverslips ([64], [65]). Explants were cultured at 37°C under 5% CO2 and high saturated in humidity. From DIV 0 to DIV 3, cultures were maintained in C-medium supplemented with 10% FBS, 1× GlutaMAX, D-glucose (4 g/liter), 2.5S nerve growth factor (NGF; 50 ng/ml), and 1% penicillin/streptomycin. From DIV 3 to DIV 7, neurobasal medium supplemented with 1× B27, 1× GlutaMAX, D-glucose (4 g/liter), 2.5S NGF (50 ng/ml), and 1% penicillin/streptomycin was used to promote axon development. From DIV 7 onward, differentiation medium [C-medium supplemented with 5 μM forskolin, ascorbic acid (50 μg/ml), and heparin (25 μg/ml)] was used to support glial cell maturation and myelination, with medium changes occurring every 2 days.
DRGs were fixed with 10% formalin for 20 min at R.T., washed with PBS, and permeabilized for 10 min with PBS–0.1% Triton X-100. Blocking was performed using a solution of 3% bovine serum albumin (BSA), 0.1% glycine, and 5% goat preimmune serum in PBS for 2 hours at R.T. DRGs were then washed in PBS and incubated overnight at 4°C with of anti-TUBB3 (1 μg/ml) and anti-MBP (1 μg/ml). After PBS washes, secondary antibodies (goat anti-mouse Alexa Fluor 488, 1:1000, and goat anti-rabbit Alexa Fluor 647, 1:1000) were applied for 1 hour at R.T. Explants were mounted with ProLong Gold antifade reagent with 4′,6-diamidino-2-phenylindole (DAPI).
Images of random fields of DRG explants, fixed in 4% formaldehyde and immunostained for TUBB3 and MBP, were captured with consistent acquisition times across samples, using a Zeiss AxioImager M2 microscope, equipped with a Hamamatsu Orca R2 camera. Image analysis was performed using Fiji software. The images were thresholded using the default global autothreshold method. For each field, MBP^+ segments were counted and normalized to the TUBB3^+ area.

HeLa cells = test: NAD(P)H autofluorescence imaging in live HeLa cells; assay type: cell-based, human; settings: 12 μM, 24 hours
Description: HeLa cells were seeded in four-chamber Labtek plates at 10,000 cells per well. After 48 hours, cells were preincubated with or without 12 μM Carba1 for 2 hours before addition of FK866 (5 and 10 nM). Drugs were added to phenol red–free DMEM medium, supplemented with 10% FBS 1% penicillin/streptomycin. After 24 hours of drug incubation, cells were imaged using a confocal microscope (LSM 710, Zeiss) with a two-photon excitation at 700 nm (Chameleon Vision Laser, Coherent) and a 40×/1.2 water-immersion objective. Detection was performed in single-photon mode using an avalanche photodiode detector (ConfoCor 3). NAD(P)H signal intensity was quantified as the mean signal per cell using ImageJ and normalized to the cell area.

`Cc1cc(-n2cccc2)c(C)c2c1[nH]c1ccc(Cl)cc12` [Compound 1] was tested, and the “binding to CA (AS-MS)” value (carbonic anhydrase (CA)) was “neither FK866 nor Carba1 was found to bind CA”, the “fragmented axons in DRG explants under PTX” value (DRG explants; 12 μM Carba1 with 500 nM PTX) was “reduced number of fragmented axons” and the “myelin staining, Carba1 combined with PTX vs PTX alone” value (DRG explants; 12 μM Carba1 with 500 nM PTX) was “substantially improved”. For the same compound, the “MBP staining (axonal myelination), agent alone” value (DRG explants; Carba1 12 μM or PTX 500 nM) was “had no effect” and the “increase in NAD(P)H production” value (HeLa cells) was “about 30%”.
